Results from ChEMBL document CHEMBL5576053, “Nonclassical Zwitterions as a Design Principle to Reduce Lipophilicity without Impacting Permeability” (J Med Chem, 2024).

Key:
Assay type in all cases: physicochemical
[1] = Acidic ionization constant, pKa of the compound
[2] = Basic ionization constant, pKa of the compound
[3] = Ionization constant, pKa of compound at pH 1 to 5
[4] = Ionization constant, pKa of compound at pH 5 to 10
[5] = 1-octanol/water partition coefficient, acidic logP of compound by shake flask method
[6] = Acidic ionization constant, pKa of the compound by potentiometric titration analysis
[7] = Ionization constant, pKa of compound

Compound | pKa [1] | pKa [2] | further results
COc1ccnc(C(=O)NC2CCCCC2)c1O | 9.1 | 2.3 | 
CNC(=O)c1ccccc1O | 8 |  | 
CC(C)(C)NC(=O)c1ccccn1 |  | 2.1 | 
O=C(NC1CCCCC1)c1nccc(Cl)c1O | 6.8 | < 2 | 
Cc1ccnc(C(=O)NC2CCCCC2)c1O | 8.5 | < 2 | 
CCOC(=O)CNC(=O)c1ncccc1O |  | 2.2 | 
O=C(NC1CCCCC1)c1ncccc1O |  | 2.2 | 
CC(C)CCNC(=O)c1ncccc1O | 7.9 | 2.3 | pKa [3]: 2.4; pKa [4]: 7.85
COc1cccc(CNC(=O)c2ncccc2OC)c1 |  | 2.9 | 
CCCC1C(=O)N2C(N(C)C)=Nc3ccc(C)cc3N2C1=O (stereo unspecified) [APAZONE] |  | < 2 | 
Cc1cc(NC(=O)C2=C(O)c3ccccc3S(=O)(=O)N2C)no1 [ISOXICAM] |  | < 2 | 
N[C@@H](Cc1cc(I)c(Oc2cc(I)c(O)c(I)c2)c(I)c1)C(=O)O [LEVOTHYROXINE] |  |  | logP [5]: 5.4
N[C@@H](Cc1cc(I)c(Oc2ccc(O)c(I)c2)c(I)c1)C(=O)O [LIOTHYRONINE] |  |  | logP [5]: 4.1
CN1C(C(=O)Nc2ccccn2)=C(O)c2sc(Cl)cc2S1(=O)=O [LORNOXICAM] |  | < 2 | 
NC(=O)c1ncn([C@@H]2O[C@H](CO)[C@@H](O)[C@H]2O)c1O [MIZORIBINE] |  |  | pKa [6]: 6.5
CN1C(C(=O)Nc2ccccn2)=C(O)c2ccccc2S1(=O)=O [PIROXICAM] |  |  | logP [5]: 4
Cc1ncc(CO)c(CO)c1O [PYRIDOXINE] |  |  | pKa [7]: 5
CCc1cc(/C(C)=N/OCc2ccc(C3CCCCC3)c(C(F)(F)F)c2)ccc1CN1CC(C(=O)O)C1 [SIPONIMOD] |  |  | logP [5]: 8.9
CN1C(C(=O)Nc2nccs2)=C(O)c2ccccc2S1(=O)=O [SUDOXICAM] | 3.1 | < 2 | 
